From ChEMBL document CHEMBL1201862, “PubChem BioAssay data set” (2004)
“And” between values parts separate entries of the source, which are not always exact repeats. Equal values may be shown once. The source made the active and inactive calls.

How the values were obtained:
[1] = target: Metabotropic glutamate receptor 5 (Rattus norvegicus, UniProt P31424); test: Identification of a glycine sulfonamide based non-MPEP site positive allosteric potentiator (PAM) of mGlu5 (calcium_assay).; assay type: functional
Chain of Metabotropic glutamate receptor 5 (P31424 whole entry): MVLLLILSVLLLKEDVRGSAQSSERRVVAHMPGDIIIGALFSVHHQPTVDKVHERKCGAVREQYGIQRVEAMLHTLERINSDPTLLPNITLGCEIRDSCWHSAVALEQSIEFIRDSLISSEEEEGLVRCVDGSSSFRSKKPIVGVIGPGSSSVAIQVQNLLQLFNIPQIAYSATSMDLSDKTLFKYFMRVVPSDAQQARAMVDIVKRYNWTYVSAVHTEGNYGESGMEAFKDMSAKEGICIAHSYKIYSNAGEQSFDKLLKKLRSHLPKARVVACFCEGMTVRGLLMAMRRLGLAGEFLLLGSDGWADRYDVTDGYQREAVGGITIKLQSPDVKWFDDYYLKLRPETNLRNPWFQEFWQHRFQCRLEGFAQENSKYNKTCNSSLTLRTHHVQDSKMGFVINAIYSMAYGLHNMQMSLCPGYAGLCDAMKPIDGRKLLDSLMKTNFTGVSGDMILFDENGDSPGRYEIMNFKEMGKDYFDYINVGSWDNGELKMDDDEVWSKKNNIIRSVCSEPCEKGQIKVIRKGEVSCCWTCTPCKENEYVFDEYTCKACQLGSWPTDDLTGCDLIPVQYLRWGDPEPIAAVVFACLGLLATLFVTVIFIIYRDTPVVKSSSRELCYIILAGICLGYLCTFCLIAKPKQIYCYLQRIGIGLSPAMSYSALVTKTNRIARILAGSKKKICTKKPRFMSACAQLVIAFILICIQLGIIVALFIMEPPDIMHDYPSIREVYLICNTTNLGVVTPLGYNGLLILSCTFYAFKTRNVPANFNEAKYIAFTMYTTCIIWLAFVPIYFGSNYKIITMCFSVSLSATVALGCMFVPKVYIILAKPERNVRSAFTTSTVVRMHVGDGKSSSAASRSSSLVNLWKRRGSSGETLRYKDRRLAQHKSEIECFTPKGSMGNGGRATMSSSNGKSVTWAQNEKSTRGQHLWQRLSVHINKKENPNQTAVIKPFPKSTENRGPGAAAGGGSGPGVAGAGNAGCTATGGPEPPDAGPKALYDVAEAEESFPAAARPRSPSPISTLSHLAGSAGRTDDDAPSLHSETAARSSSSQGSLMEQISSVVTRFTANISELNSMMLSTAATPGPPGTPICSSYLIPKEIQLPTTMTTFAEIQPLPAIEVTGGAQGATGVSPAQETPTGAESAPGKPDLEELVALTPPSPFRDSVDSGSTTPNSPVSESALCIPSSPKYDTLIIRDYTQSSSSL

[2] = A549 lung cell viability reduction – CellTiter-Glo luminescence, cherry-pick, cytotoxicity control, dose response (AID 743484); assay type: functional, cell-based
[3] = target: Cytochrome P450 2C9 (Homo sapiens, UniProt P11712)
[4] = IC50 of insulin release inhibition, rat insulinoma INS-1E line, 5 mM glucose, cell-based (AID 1117331); assay type: functional
[5] = target: T1, Disintegrin and metalloproteinase domain-containing protein 17 (Homo sapiens, UniProt P78536); test: inhibition of ADAM17 substrate cleavage – biochemical, quenched FRET substrate, counter-screen for ADAM10 exosite inhibitor project, dose response (AID 743253)
T1 sequence (P78536 whole entry, the tested form may be a part): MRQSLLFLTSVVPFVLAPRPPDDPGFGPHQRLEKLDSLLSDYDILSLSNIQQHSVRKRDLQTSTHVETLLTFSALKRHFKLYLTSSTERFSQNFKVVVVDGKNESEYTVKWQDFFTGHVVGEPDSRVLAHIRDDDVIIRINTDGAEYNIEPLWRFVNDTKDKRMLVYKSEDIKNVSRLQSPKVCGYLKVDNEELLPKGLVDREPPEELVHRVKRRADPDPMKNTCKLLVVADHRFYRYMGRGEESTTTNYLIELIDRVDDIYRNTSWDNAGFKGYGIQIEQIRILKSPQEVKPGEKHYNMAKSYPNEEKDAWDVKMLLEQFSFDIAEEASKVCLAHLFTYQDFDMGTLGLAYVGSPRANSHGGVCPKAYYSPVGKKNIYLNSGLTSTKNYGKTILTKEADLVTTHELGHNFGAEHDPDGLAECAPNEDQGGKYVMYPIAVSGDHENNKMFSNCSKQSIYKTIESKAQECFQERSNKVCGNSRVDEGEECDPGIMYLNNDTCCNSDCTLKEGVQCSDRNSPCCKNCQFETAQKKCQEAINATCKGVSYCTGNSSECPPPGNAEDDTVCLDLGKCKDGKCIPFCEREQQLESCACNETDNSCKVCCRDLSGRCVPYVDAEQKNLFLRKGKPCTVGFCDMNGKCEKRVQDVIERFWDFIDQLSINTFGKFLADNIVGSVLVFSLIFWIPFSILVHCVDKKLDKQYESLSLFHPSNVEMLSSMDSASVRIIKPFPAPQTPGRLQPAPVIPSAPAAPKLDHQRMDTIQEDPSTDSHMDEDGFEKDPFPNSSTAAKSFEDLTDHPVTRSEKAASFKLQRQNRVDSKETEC

[6] = potency of ADAM10 substrate cleavage blockers – biochemical, QFRET, dose response (AID 743254);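 also: ADAM10 enzyme with the DM2 quenched FRET peptide as substrate; EDANS fluorescence gain as the protease cuts the substrate; inhibitor potency against ADAM10 proteolytic activity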
[7] = target: T1, Disintegrin and metalloproteinase domain-containing protein 17; test: exosite inhibitors of ADAM17, dose response, biochemical (AID 743260)
[8] = target: Endoplasmic reticulum aminopeptidase 1 (Homo sapiens, UniProt Q9NZ08); test: inhibition of human ERAP1 enzyme activity – biochemical, cherry-pick, set 2, plate reader, dose response (AID 743314)
Chain of Endoplasmic reticulum aminopeptidase 1 (Q9NZ08 whole entry, the tested form may be a part): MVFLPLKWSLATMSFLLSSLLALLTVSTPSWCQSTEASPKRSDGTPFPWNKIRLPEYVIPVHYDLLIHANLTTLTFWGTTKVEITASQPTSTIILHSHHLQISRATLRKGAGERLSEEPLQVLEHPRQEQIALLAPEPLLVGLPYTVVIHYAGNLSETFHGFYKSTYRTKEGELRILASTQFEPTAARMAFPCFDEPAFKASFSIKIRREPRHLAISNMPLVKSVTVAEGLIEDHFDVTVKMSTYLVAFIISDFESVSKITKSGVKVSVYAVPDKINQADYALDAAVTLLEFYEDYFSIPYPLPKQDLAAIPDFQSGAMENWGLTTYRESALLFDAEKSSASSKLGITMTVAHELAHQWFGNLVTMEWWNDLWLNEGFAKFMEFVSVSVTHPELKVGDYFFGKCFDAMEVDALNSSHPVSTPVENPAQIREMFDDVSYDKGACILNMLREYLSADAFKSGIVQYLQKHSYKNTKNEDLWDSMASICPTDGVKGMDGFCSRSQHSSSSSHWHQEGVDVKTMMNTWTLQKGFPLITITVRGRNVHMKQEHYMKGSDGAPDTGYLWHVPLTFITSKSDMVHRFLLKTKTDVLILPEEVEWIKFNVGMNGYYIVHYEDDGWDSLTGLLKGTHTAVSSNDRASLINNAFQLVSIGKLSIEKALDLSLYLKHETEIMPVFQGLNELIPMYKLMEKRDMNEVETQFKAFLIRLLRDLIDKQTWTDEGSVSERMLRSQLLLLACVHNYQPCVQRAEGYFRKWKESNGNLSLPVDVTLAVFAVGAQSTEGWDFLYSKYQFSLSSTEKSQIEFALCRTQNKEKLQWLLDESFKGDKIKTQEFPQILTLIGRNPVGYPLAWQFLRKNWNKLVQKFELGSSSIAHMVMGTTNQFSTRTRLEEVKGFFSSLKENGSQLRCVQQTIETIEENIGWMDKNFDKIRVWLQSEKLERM

[9] = blockers of HIV-1 envelope-mediated cell-cell fusion – cherry-pick, dose response (AID 652057); assay type: functional, cell-based
[10] = viability loss in CEM21 cells – cell-based, CellTiter-Glo luminescence, cherry-picked, cytotoxicity control for viral fusion inhibitor project, dose response (AID 652042); assay type: functional;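 also: potency for signal decrease meaning cytotoxicity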
[11] = off-target signal loss in HeLa-CEM21 co-culture – HeLa F-luc CTL cells, cherry-picked, counter-screen for HIV-1 Env fusion inhibitor project, dose response (AID 652040); assay type: functional, cell-based;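 also: potency for signal decrease marking cytotoxic or nonspecific inhibition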
[12] = test system: HEK293; test: cells; conditions: Homo sapiens
[13] = microbe, parasite or virus in culture; assay type: functional; conditions: Mycobacterium tuberculosis
[14] = target: RNA-editing ligase 1, mitochondrial (Trypanosoma brucei brucei, UniProt P86926); test: inhibition of trypanosome RNA editing ligase – biochemical, fluorescence, Trypanosoma brucei, dose response (AID 1117295); assay type: functional
[15] = Luminescence-based dose response cell-based high throughput screening assay for cytotoxic compounds using the IEC-6 intestinal epithelial cell line. [Related pubchem assays: 1858 (Summary AID.), 1825 (Counterscreen.), 1907 (Confirmation screen.)]; assay type: functional
[16] = HIV-1 AD8 envelope cell-cell fusion blockers – cherry-pick, dose response (AID 652062); assay type: functional, cell-based;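 also: luciferase signal from cell-cell fusion driven by HIV-1 clade B AD8 Env; potency is for inhibitors of fusion seen as a drop in luminescence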
[17] = blockers of HIV-1 ZM109 envelope-driven cell-cell fusion – HeLa effector, CEM target cells, luciferase, cherry-pick, dose response (AID 652058); assay type: functional, cell-based;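 also: luciferase signal from HIV-1 Env mediated cell-cell fusion of effector and target cells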
[18] = test system: HEK293; test: cells; conditions: Homo sapiens; remark: listed apart in the source
[19] = target: Neurotensin receptor type 1 (Homo sapiens, UniProt P30989); assay type: functional;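 also: Image-based confirmatory dose-response assay measuring agonist activity at NTR1; NTR1-expressing U2OS osteosarcoma cells imaged for beta-arrestin GFP spot formation; agonist potency where compounds increase beta-arrestin recruitment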
Chain of Neurotensin receptor type 1 (P30989 whole entry): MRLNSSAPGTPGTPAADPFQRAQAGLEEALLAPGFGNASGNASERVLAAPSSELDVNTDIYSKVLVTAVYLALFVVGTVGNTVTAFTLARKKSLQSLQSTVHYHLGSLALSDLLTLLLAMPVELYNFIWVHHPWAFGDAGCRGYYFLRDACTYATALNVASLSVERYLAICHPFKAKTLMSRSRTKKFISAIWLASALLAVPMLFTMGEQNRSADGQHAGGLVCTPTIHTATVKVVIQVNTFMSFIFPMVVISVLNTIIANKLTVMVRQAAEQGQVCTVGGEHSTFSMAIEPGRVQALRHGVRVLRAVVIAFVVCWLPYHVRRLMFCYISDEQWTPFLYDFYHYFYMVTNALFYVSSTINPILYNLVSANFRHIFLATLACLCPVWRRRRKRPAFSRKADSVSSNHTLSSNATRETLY

[20] = target: T2, Heat shock factor protein 1 (Mus musculus, UniProt P38532); test: decrease of HSF1-responsive luciferase luminescence – cell-based, NIH3T3, dose retest, confirmation (AID 2382); assay type: functional;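 also: NIH3T3 fibroblasts with HSF1-driven luciferase reporter stressed by proteasome inhibitor MG132; luminescence from HSF1-driven luciferase expression after 8 hours of MG132 stress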
T2 sequence (P38532 whole entry): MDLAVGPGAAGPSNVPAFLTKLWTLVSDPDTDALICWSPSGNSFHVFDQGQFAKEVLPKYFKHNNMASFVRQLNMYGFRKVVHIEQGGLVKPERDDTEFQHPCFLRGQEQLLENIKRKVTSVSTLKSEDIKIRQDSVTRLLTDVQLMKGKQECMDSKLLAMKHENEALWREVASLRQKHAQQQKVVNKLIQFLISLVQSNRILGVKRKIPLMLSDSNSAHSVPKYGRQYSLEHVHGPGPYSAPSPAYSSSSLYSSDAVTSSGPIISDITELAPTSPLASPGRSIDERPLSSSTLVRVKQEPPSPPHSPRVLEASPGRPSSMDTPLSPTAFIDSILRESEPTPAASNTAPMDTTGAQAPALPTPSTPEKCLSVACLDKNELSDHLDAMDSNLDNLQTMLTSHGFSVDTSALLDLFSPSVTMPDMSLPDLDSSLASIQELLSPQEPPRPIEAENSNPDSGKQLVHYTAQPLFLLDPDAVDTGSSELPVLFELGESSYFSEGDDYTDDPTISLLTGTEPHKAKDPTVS

[21] = target: COUP transcription factor 2 (Homo sapiens, UniProt P24468); test: Luminescence-based cell-based high throughput dose response assay to identify inhibitors of COUP-TFII (NR2F2).; assay type: functional;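 also: HEK293 cells transiently cotransfected with COUP-TFII expression vector and reporter; luciferase reporter luminescence driven by COUP-TFII from the pX2-168 reporter plasmid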
[22] = target: Transthyretin (Homo sapiens, UniProt P02766); test: Luminescence-based cell-based high throughput dose response assay to identify activators of Transthyretin (TTR) transcription.; assay type: functional
[23] = target: Paired box protein Pax-8 (Homo sapiens, UniProt Q06710); test: PAX8 transcriptional activity inhibition in RMG-I – RMG-I cells, luciferase, cherry-pick, dose response (AID 687027); assay type: functional, cell-based;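 also: luciferase reporter driven by Pax8 target thyroperoxidase promoter measured by SteadyGlo luminescence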
[24] = OVCAR-3 cell viability loss – plate reader, dry powder samples, PAX8 inhibitor project, dose response (AID 743044); assay type: functional, cell-based
[25] = OVCAR8 cell viability loss – plate reader, dry powder samples, PAX8 project, dose response (AID 743197); assay type: functional, cell-based; conditions: OVCAR-8
[26] = IGROV1 cell killing – plate reader, dry powder samples, PAX8 inhibitor project, dose response (AID 743043); assay type: functional, cell-based; conditions: IGROV-1
[27] = inhibition of Env-driven cell fusion – HIV entry, plate reader, dry powder, dose response (AID 687023); assay type: functional, cell-based
[28] = viability loss in CEM21 cells – cell-based, plate reader, dry powder, cytotoxicity control, dose response (AID 687026); assay type: functional
[29] = inhibition of ADAM10 peptide cleavage – biochemical, FRET peptide substrate, recombinant human ADAM10, selectivity assay for ADAM17 exosite inhibitor project, dose response (AID 743259);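 also: ADAM10 enzyme cleaving a FRET peptide substrate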
[30] = viability loss in THP-1 monocytes – THP-1 cells, cytotoxicity control for Vif-APOBEC3G degradation inhibitor project, dose response (AID 1117359); assay type: functional; conditions: THP-1
[31] = target: NAD-dependent protein deacylase sirtuin-5, mitochondrial (Homo sapiens, UniProt Q9NXA8); test: sirtuin-5 deacylation blockers, concentration series – biochemical, fluorescence imaging, cherry-pick, set 5, dose response (AID 720591);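 also: desuccinylation of succinyl peptide AMC substrate read as fluorescence after trypsin release; potency of inhibitors that lower fluorescence and may act on trypsin instead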
Chain of NAD-dependent protein deacylase sirtuin-5, mitochondrial (Q9NXA8 whole entry): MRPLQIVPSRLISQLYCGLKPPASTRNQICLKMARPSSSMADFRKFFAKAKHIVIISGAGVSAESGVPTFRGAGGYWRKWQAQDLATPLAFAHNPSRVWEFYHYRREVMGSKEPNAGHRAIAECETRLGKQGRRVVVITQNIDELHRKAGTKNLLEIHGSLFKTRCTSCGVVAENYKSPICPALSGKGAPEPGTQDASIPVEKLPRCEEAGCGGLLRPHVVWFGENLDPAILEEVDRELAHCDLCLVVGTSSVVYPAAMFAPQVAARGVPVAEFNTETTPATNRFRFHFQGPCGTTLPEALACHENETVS

[32] = target: 1-phosphatidylinositol 4,5-bisphosphate phosphodiesterase gamma-1 (Homo sapiens, UniProt P19174); test: Counterscreen for inhibitors of phospholipase C isozymes (PLC-B3): Fluorescence-based biochemical high throughput dose response assay to identify inhibitors of phospholipase C isozymes (PLC-gamma1).
[33] = target: T3, Histone-lysine N-methyltransferase NSD2 (Homo sapiens, UniProt O96028); assay type: biochemical
T3 sequence (O96028 whole entry): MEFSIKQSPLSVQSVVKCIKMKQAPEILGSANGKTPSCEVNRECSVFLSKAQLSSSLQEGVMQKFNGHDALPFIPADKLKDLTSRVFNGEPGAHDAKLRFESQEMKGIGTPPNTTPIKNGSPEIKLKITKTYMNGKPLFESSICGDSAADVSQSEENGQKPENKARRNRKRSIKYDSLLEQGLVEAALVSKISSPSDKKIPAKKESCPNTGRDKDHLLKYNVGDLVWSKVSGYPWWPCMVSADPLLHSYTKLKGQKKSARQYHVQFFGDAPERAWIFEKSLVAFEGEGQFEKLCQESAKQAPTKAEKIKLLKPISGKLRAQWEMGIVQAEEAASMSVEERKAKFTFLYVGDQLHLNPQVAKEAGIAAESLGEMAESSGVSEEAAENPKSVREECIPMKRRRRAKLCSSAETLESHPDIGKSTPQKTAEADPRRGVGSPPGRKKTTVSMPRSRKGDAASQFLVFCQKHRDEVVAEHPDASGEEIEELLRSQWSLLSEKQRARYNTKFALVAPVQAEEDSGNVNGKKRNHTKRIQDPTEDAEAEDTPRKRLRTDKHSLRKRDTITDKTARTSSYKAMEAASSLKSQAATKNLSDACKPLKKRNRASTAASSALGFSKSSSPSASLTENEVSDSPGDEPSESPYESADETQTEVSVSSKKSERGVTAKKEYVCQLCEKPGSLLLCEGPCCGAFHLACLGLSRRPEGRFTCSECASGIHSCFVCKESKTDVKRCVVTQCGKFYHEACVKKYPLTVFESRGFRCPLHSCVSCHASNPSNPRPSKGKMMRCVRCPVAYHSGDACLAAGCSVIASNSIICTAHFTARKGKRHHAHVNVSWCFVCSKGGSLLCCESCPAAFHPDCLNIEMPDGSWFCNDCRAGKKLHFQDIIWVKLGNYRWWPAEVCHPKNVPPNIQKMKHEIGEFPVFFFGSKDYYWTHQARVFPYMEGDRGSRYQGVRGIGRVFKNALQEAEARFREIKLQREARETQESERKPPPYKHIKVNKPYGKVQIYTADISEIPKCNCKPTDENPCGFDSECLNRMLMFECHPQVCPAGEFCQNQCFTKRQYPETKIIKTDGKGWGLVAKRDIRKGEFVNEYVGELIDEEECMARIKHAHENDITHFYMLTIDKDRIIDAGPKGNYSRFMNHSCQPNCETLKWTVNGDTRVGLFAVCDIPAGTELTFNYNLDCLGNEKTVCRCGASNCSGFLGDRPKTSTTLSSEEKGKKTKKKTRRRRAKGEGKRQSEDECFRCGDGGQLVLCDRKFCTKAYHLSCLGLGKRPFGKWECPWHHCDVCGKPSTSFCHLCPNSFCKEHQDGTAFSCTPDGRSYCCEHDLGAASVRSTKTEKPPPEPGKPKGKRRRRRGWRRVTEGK

[34] = target: 1-phosphatidylinositol 4,5-bisphosphate phosphodiesterase beta-3 (Homo sapiens, UniProt Q01970); test: Fluorescence-based biochemical high throughput dose response assay to identify inhibitors of phospholipase C isozymes (PLC-B3).
Chain of 1-phosphatidylinositol 4,5-bisphosphate phosphodiesterase beta-3 (Q01970 whole entry): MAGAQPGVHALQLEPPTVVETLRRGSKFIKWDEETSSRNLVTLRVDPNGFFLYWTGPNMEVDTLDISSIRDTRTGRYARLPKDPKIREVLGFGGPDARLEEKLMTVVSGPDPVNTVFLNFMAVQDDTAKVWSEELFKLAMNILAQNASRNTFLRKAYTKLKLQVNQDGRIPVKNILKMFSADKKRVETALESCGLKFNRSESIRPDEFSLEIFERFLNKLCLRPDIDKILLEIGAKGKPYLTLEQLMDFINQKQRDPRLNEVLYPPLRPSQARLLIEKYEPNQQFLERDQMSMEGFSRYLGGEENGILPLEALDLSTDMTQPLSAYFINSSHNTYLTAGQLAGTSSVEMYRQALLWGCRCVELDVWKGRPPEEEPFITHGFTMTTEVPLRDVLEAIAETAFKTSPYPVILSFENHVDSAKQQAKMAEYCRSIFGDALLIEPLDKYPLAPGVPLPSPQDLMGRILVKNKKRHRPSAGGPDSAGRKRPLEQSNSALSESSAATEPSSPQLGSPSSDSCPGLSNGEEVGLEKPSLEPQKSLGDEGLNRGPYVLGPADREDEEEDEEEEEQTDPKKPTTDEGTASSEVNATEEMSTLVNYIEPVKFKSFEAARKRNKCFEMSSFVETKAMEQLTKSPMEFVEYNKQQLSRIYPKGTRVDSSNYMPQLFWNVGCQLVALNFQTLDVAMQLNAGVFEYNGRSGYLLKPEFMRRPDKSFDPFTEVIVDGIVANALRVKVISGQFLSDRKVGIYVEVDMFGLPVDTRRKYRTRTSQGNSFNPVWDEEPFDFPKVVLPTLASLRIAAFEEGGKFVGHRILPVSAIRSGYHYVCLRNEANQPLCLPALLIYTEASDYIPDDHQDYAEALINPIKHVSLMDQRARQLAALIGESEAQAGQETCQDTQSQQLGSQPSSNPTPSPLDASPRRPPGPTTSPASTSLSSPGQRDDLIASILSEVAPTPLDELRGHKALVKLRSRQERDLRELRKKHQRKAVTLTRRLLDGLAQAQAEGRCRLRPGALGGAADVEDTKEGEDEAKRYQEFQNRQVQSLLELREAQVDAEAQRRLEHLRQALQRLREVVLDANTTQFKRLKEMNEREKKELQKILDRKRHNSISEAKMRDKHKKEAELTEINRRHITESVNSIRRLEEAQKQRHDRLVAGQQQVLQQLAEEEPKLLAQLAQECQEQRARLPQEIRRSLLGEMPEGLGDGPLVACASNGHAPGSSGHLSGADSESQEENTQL

[35] = Late stage assay provider results from the probe development effort to identify selective inhibitors of heat shock protein 90 (HSP90): Absorbance-based cell proliferation assay in SKBR3 cells.; assay type: functional; conditions: SK-BR-3
[36] = Late stage assay provider results from the probe development effort to identify selective inhibitors of heat shock protein 90 (HSP90): Absorbance-based cell proliferation assay in MCF7 cells.; assay type: functional
[37] = Shn3 3'UTR reporter signal decrease – cell-based, Clone20 osteoblasts, firefly luciferase, cherry-pick, set 2, Schnurri-3 inhibitor project, dose response (AID 720490); assay type: functional;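 also: actives lower the luminescence signal as inhibitors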
[38] = EF1alpha-driven Renilla reporter with control 3'UTR suppression – Clone20-Shn3RL cells, dual-Glo, cherry-pick, set 2, counter-screen for Shn3 3'UTR targeting project, dose response (AID 720724); assay type: functional, cell-based; conditions: Dual-Go Shn3RL
[39] = reduction of Shn3 3'UTR-driven luciferase in osteoblasts – cell-based, Clone20 osteoblasts, firefly luciferase, cherry-picked, dose response (AID 624132); assay type: functional;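 also: firefly luciferase luminescence from reporter carrying the Shn3 3'UTR in osteoblasts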

CC(C)N(CC(=O)Nc1ccccc1)S(C)(=O)=O
EC50 [1]: 10 µM (inconclusive)

CSc1nc(N)nc(SC2C=CCCC2)c1C#N (stereo not given)
AC50 [2]: > 52 µM (inactive)

COc1ccccc1N1CCN(CCCCNC(=O)c2ccc(-c3ccc(C(C)=O)cc3)cc2)CC1
AC50 [3]: inconclusive | IC50 [4]: > 33.3 µM (inactive)

CC(=NNC(=O)CSc1nnc(-c2ccc(C(C)(C)C)cc2)n1-c1ccccc1)c1cccc2ccccc12
IC50 [5]: > 69.5 µM (inactive) | IC50 [6]: > 69.5 µM (inactive) | IC50 [7]: > 69.5 µM (inactive)

COc1ccc2c3c([nH]c2c1)[C@H](CO)N(Cc1cc(F)ccc1F)CC31CN(C)C1
AC50 [8]: 6.53 µM (active)

CC(C)Cc1ccc(C(C)C(=N)NCCc2ccccc2)cc1 (stereo not given)
AC50 [9]: 2.78 µM (active) | AC50 [10]: 14.3 µM (active) | AC50 [11]: 7.77 µM (active) | EC50 [12]: > 59.7 µM (inactive) | CC50 [13]: 12.1 µM (active) | IC50 [14]: > 96.6 µM (inactive) | IC50 [15]: 3.3 µM (active) | AC50 [16]: 21.6 µM (active) | AC50 [17]: 4.62 µM (active) | EC50 [18]: > 59.7 µM (inactive)

CCOC(=O)c1c(C)[nH]c(C(=O)OCC(=O)Nc2sccc2C(N)=O)c1C
EC50 [19]: 3.35 µM (active) | EC50 [20]: > 195 µM (not active) | IC50 [21]: 8.54 µM (active)

COc1ccc([C@@H]2CC=C(C(=O)O)[C@H](c3ccccc3F)N2S(=O)(=O)c2ccccc2C)cc1
EC50 [22]: > 167 µM (inactive)

C[C@@H]1CN([C@H](C)CO)C(=O)c2cc(NS(=O)(=O)c3ccc(Cl)cc3)ccc2O[C@@H](C)CCCCO[C@H]1CN(C)C(=O)Nc1ccc(C(F)(F)F)cc1
AC50 [23]: 2.86 µM (active) | AC50 [24]: 17.9 µM (active) | AC50 [25]: 29.6 µM (active) | AC50 [26]: 35.2 µM (active)

CCCOc1ccc(S(=O)(=O)NCc2cccnc2)cc1
AC50 [27]: 13.1 µM (active) and 17.6 µM (active) | AC50 [28]: > 70 µM (inactive)

O=C(C[C@H]1C/C=C\CC[C@@H](Cc2ccc(F)cc2)C(=O)O[C@@H](c2ccccc2)CNC1=O)N[C@H](CO)Cc1ccccc1
IC50 [29]: > 69.5 µM (inactive) | IC50 [7]: > 69.5 µM (inactive)

CCOC(=O)C1(CCOC)CCN(Cc2cnc(-c3cccc(C)c3)nc2)CC1
CC50 [30]: > 40 µM (active) | AC50 [31]: > 30 µM (inactive)

O=C(CCCN1C(=O)/C(=C/c2ccco2)SC1=S)Nc1cccc(C(=O)O)c1
IC50 [32]: > 122 µM (inactive) | AC50 [33]: > 20 µM (inactive) | IC50 [34]: > 122 µM (inactive)

COC(=O)CCCCOc1ccc2cc(Br)c(=O)oc2c1
IC50 [35]: > 100 µM (inactive) | IC50 [36]: > 100 µM (inactive)

Cc1ccc(CNC(=O)CSc2c3c(nc4ccc(Cl)cc24)CCCC3)o1
AC50 [37]: 10.7 µM (active) | AC50 [38]: 37.6 µM (active) | AC50 [39]: 5.98 µM (active)
